Values quoted from earlier work in PMC8212709 (Clinical and Translational Science, 2021).

Details: dogs, nonclinical, no reference given, cited from earlier work

In the case of C=CC(=O)N1CC[C@H](Oc2nc(-c3n[nH]c(=O)[nH]3)cc3ccccc23)C1 [TAK‐020], the “terminal disposition phase elimination half‐life (t1/2z)” value (after oral administration) is listed as 3.8 to 6.7 h and the oral bioavailability is listed as 8.17%.
